In PubChem BioAssay (NCI):
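These data come from cells grown in 96-well plates and exposed to compound for 48 hours at five concentrations. GI50: concentration for 50% inhibition of growth. TGI: concentration producing complete growth inhibition.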

Key:
Test in all cases: NCI-60 cell line screen, 48 h
SF-295 CNS = test system: SF-295 CNS
HL-60(TB) leukemia = test system: HL-60(TB) leukemia
HCT-15 colon = test system: HCT-15 colon
M14 melanoma = test system: M14 melanoma
SF-268 CNS = test system: SF-268 CNS
K-562 leukemia = test system: K-562 leukemia
HT29 colon = test system: HT29 colon
HOP-92 NSCLC = test system: HOP-92 NSCLC
RXF 393 renal = test system: RXF 393 renal
EKVX NSCLC = test system: EKVX NSCLC

SMILES	TGI (SF-295 CNS) [µM]	TGI (HL-60(TB) leukemia) [µM]	TGI (HCT-15 colon) [µM]	TGI (M14 melanoma) [µM]	TGI (SF-268 CNS) [µM]	TGI (K-562 leukemia) [µM]	TGI (HT29 colon) [µM]	GI50 (SF-295 CNS) [µM]	GI50 (HOP-92 NSCLC) [µM]	TGI (HOP-92 NSCLC) [µM]	GI50 (RXF 393 renal) [µM]	TGI (RXF 393 renal) [µM]	GI50 (HT29 colon) [µM]	TGI (EKVX NSCLC) [µM]	GI50 (HL-60(TB) leukemia) [µM]	GI50 (HCT-15 colon) [µM]	GI50 (EKVX NSCLC) [µM]	GI50 (K-562 leukemia) [µM]	GI50 (M14 melanoma) [µM]	GI50 (SF-268 CNS) [µM]
CCc1ccc2nc(-c3ccc(O)cc3)sc2c1	30.6	10.2	29.4	35.5	37.8	54.5	30.2													
CN(C)c1ccc(C(Cc2ccc3ccccc3n2)Cc2ccc3ccccc3n2)cc1	> 100						> 100	3.26	2.19	6.91	3.48	9.11	3.83							
N#Cc1c(N)sc2c1-c1ccccc1OC2		82.1	> 100	> 100	> 100	> 100	> 100			> 100		41.3		31						
CCOC(=O)C(O)(NC(=O)c1ccccc1F)C(F)(F)F (configuration not stated)	> 100	> 100	> 100	> 100	> 100	> 100	> 100			> 100		> 100		> 100						
CCCCCCCCCCCCCC[n+]1ccc2c(C)c3c(c(C)c2c1)c1cc(O)ccc1n3CC	1.08	1.95	3.5					0.289	0.301	1.32				2.56	0.378	1.21	0.554			
COc1cc(/C=C/C(=O)c2c(C)nc3ccccc3c2C)ccc1OCCCOc1cc2c(cc1OC)C(=O)N1CCC[C@H]1C=N2			1.01			0.0346	3.03		0.0367	0.275			0.028	0.453	0.0356	0.278	0.0555	0.011		
CO/N=C(\C)COc1ccc2c(=O)c(-c3ccccc3)coc2c1	65.2	> 100	> 100	> 100	71	> 100	> 100	31.9	17.2	43.9	27.1	57.8	> 100		37.7	40.1		> 100	93.7	24.5
COc1cc(C2C(C(=O)O)=C(COC(C)=O)Oc3cc4c(cc32)OCO4)cc(OC)c1OC (configuration not stated)	> 100	> 100	> 100	> 100		> 100	> 100					> 100		> 100						
CNC(=O)N(C)COC	> 100	> 100	> 100	> 100	> 100		> 100							> 100						
O=C(O)c1cn2c3c(cc(N4CCN(CCO)CC4)cc3c1=O)SCC2	> 100	> 100	> 100		> 100	> 100	> 100			> 100		> 100		> 100						
